Measurements from patent publication US20170022171A1, “2,5-DISUBSTITUTED CYCLOPENTANECARBOXYLIC ACIDS AND THEIR USE” (Bayer Pharma Aktiengesellschaft, priority 2014, published 2017).

Tests used:
Assay type in all cases: biochemical
[1] = target: T1, MMP-3 (Homo sapiens, UniProt P08254); assay: In vitro MMP-3 inhibition test
T1 construct: purchased R&D Systems 513-MP
Text: (§1) The MMP-mediated amidolytic cleavage of a suitable peptide substrate leads to an increase in fluorescent light here too. The signal intensity of the fluorescent light is directly proportional to the enzyme activity. The active concentration of a test compound at which half the enzyme is inhibited (50% signal intensity of the fluorescent light) is reported as the IC50 value.
Recombinant MMP-3 (from R&D Systems, 513-MP) is chemically activated in accordance with the manufacturer's instructions using APMA. 1 μl of the test compound to be analysed (as a solution in DMSO, suitable concentrations, for example, 1 nM to 30 μM) is pipetted into 24 μl of activated enzyme (final concentration, for example, 2 nM) in reaction buffer (50 mM Tris/HCl pH 7.5, 10 mM CaCl2, 150 mM NaCl, 0.05% Brij®-35) in a white 384-hole microtiter plate (MTP). The enzymatic reaction is started by adding the intramolecularly quenched Mca-Arg-Pro-Lys-Pro-Val-Glu-Nval-Trp-Arg-Lys(Dnp)-NH2 substrate (final concentration, for example, 10 μM; R&D Systems, ES-002), so as to result in a total test volume of 50 The course of the MMP-3 reaction is measured by measuring the fluorescence intensity (excitation 320 nm, emission 410 nm) over a suitable period of time (for example over 120 min at a temperature of 32° C.).

[2] = target: T2, MMP-16 (Homo sapiens, UniProt P51512); assay: In vitro MMP-16 inhibition test
T2 construct: purchased R&D Systems 1785-MP
Text: as §1
Recombinant MMP-16 (from R&D Systems, 1785-MP) is enzymatically activated in accordance with the manufacturer's instructions using recombinant furin (from R&D Systems, 1503-SE). 1 μl of the test compound to be analysed (as a solution in DMSO, suitable concentrations e.g. 1 nM to 30 μM) is pipetted into 24 μl of activated enzyme (final concentration e.g. 1 nM) in reaction buffer (50 mM Tris/HCl pH 7.5, 10 mM CaCl2, 150 mM NaCl, 0.05% Brij®-35) in a white 384-hole microtiter plate (MTP). The enzymatic reaction is started by adding the intramolecularly quenched Mca-Lys-Pro-Leu-Gly-Leu-Dpa(Dnp)-Ala-Arg-NH2 substrate (final concentration, for example, 5 μM; R&D Systems, ES-010), so as to result in a total test volume of 50 The course of the MMP-16 reaction is measured by measuring the fluorescence intensity (excitation 320 nm, emission 410 nm) over a suitable period of time (for example over 120 min at a temperature of 32° C.).

[3] = target: T3, MMP-1 (Homo sapiens, UniProt P03956); assay: In vitro MMP-1 inhibition test
T3 construct: purchased R&D Systems 901-MP
T3 sequence (P03956 100-469): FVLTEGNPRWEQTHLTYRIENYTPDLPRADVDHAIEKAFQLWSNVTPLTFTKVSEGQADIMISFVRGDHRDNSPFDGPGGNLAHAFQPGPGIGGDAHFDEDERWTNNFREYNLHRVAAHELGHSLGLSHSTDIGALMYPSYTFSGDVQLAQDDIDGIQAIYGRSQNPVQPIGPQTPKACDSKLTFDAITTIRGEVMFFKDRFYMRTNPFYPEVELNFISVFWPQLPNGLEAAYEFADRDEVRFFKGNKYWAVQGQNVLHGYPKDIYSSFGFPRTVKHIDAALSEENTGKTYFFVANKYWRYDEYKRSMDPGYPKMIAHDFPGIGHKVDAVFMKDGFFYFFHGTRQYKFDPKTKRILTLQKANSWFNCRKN
Text: as §1
Recombinant MMP-1 (from R&D Systems, 901-MP) is chemically activated in accordance with the manufacturer's instructions using APMA. 1 μl of the test compound to be analysed (as a solution in DMSO, suitable concentrations, for example, 1 nM to 30 μM) is pipetted into 24 μl of activated enzyme (final concentration, for example, 2 nM) in reaction buffer (50 mM Tris/HCl pH 7.5, 10 mM CaCl2, 150 mM NaCl, 0.05% Brij®-35) in a white 384-hole microtiter plate (MTP). The enzymatic reaction is started by adding the intramolecularly quenched Mca-Pro-Leu-Gly-Leu-Dpa(Dnp)-Ala-Arg-NH2 substrate (final concentration, for example, 10 μM; R&D Systems, ES-001), so as to result in a total test volume of 50 μl. The course of the MMP-1 reaction is measured by measuring the fluorescence intensity (excitation 320 nm, emission 410 nm) over a suitable period of time (for example over 120 min at a temperature of 32° C.).

T1 sequence (P08254 100-477): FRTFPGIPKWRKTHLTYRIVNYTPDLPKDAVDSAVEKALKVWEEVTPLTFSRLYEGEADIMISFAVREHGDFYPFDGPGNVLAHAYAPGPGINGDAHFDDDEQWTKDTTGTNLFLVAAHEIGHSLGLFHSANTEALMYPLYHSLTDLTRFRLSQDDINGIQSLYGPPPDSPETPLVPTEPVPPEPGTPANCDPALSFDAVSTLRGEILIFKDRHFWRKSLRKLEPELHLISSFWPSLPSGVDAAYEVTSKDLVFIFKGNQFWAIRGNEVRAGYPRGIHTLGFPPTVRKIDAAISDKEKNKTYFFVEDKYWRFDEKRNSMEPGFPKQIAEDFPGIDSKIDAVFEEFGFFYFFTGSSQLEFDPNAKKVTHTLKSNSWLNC
T2 sequence (P51512 120-564 limits assumed): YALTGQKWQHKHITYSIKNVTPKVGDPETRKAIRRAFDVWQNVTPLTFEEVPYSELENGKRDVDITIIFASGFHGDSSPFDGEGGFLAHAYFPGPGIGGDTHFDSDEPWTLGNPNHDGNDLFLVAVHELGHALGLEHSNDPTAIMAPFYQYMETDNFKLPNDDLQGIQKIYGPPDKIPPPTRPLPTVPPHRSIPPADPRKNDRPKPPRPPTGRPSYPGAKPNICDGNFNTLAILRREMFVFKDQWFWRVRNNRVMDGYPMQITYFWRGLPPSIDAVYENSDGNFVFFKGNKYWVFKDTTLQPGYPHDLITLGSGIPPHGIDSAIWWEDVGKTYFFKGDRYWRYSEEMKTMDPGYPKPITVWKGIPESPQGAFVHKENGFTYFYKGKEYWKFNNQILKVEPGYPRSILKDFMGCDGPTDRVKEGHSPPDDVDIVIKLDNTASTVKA

| Compound | IC50 [1] [nM] | IC50 [2] [nM] | IC50 [3] [nM] |
| --- | --- | --- | --- |
| O=C(O)[C@H]1[C@H](Cn2nnc3ccc(C(F)(F)F)cc3c2=O)CC[C@@H]1C(=O)c1ccc(SCc2ccc(Cl)c(Cl)c2)cc1 (racemic) [Example 79, (+/−)-(1RS,2RS,5SR)-2-{4-[(3,4-Dichlorobenzyl)sulphanyl]benzoyl}-5-{[4-oxo-6-(trifluoromethyl)-1,2,3-benzotriazin-3(4H)-yl]methyl}cyclopentanecarboxylic acid] | 800 | > 40000 | 15000 |
| COC(=O)Nc1cccc(COc2ccc(C(=O)[C@@H]3CC[C@H](Cn4nnc5ccc(C(F)(F)F)cc5c4=O)[C@H]3C(=O)O)cc2)c1 (stereo in doubt) [Example 31, (+)-(1RS,2RS,5SR)-2-[4-({3-[(Methoxycarbonyl)amino]benzyl}oxy)benzoyl]-5-{[4-oxo-6-(trifluoromethyl)-1,2,3-benzotriazin-3(4H)-yl]methyl}cyclopentanecarboxylic acid] | 280 | 890 | 5400 |
| CCCCCOc1ccc(C(=O)[C@H]2CC[C@@H](Cn3nnc4ccc(C)cc4c3=O)[C@@H]2C(=O)O)cc1 (racemic) [Example 123, (+/−)-(1RS,2SR,5RS)-2-[(6-Methyl-4-oxo-1,2,3-benzotriazin-3(4H)-yl)methyl]-5-[4-(pentyloxy)benzoyl]cyclopentanecarboxylic acid] | 540 | 11000 | 24000 |
| O=C(O)[C@H]1[C@H](Cn2nnc3ccccc3c2=O)CC[C@@H]1C(=O)c1ccc(OCc2ccc(Cl)c(Cl)c2)cc1 (racemic) [Example 3, (+/−)-(1RS,2RS,5SR)-2-{4-[(3,4-Dichlorobenzyl)oxy]benzoyl}-5-[(4-oxo-1,2,3-benzotriazin-3(4H)-yl)methyl]cyclopentanecarboxylic acid] | 1500 | 4000 | 16000 |
| O=C(O)[C@@H]1[C@@H](Cn2nnc3ccc(C(F)(F)F)cc3c2=O)CC[C@H]1C(=O)c1ccc(OCCC2CCCC2)cc1 (single isomer, unassigned) [Example 55, (+)-(1RS,2RS,5SR)-2-[4-(2-Cyclopentylethoxy)benzoyl]-5-{[4-oxo-6-(trifluoromethyl)-1,2,3-benzotriazin-3(4H)-yl]methyl}cyclopentanecarboxylic acid] | 440 | 5100 | 15000 |
| Cc1ccc2nnn(C[C@@H]3CC[C@H](C(=O)c4ccc(OCc5cccc(C(F)(F)F)c5)cc4)[C@H]3C(=O)O)c(=O)c2c1 (racemic) [Example 100, (+/−)-(1RS,2SR,5RS)-2-[(6-Methyl-4-oxo-1,2,3-benzotriazin-3(4H)-yl)methyl]-5-(4-{[3-(trifluoromethyl)benzyl]oxy}benzoyl)cyclopentanecarboxylic acid] | 1500 | 970 | > 40000 |
| O=C(O)[C@@H]1[C@@H](Cn2nnc3ccc(C(F)(F)F)cc3c2=O)CC[C@H]1C(=O)c1ccc(OCc2cccc(Cl)c2)cc1 (single isomer, unassigned) [Example 23, (+)-(1RS,2RS,5SR)-2-{4-[(3-Chlorobenzyl)oxy]benzoyl}-5-{[4-oxo-6-(trifluoromethyl)-1,2,3-benzotriazin-3(4H)-yl]methyl}cyclopentanecarboxylic acid] | 540 | 2200 | 24000 |
| O=C(O)[C@H]1[C@H](Cn2nnc3ccccc3c2=O)CC[C@@H]1C(=O)c1ccc(OCc2cccc(Cl)c2)cc1 (racemic) [Example 2, (+/−)-(1RS,2RS,5SR)-2-{4-[(3-Chlorobenzyl)oxy]benzoyl}-5-[(4-oxo-1,2,3-benzotriazin-3(4H)-yl)methyl]cyclopentanecarboxylic acid] | 2100 | 1000 | > 40000 |
| O=C(O)[C@H]1[C@H](Cn2nnc3ccc(C(F)(F)F)cc3c2=O)CC[C@@H]1C(=O)c1ccc(OCCCC2CCCCC2)cc1 (racemic) [Example 56, (+/−)-(1RS,2RS,5SR)-2-{4-(3-Cyclohexylpropoxy)benzoyl}-5-{[4-oxo-6-(trifluoromethyl)-1,2,3-benzotriazin-3(4H)-yl]methyl}cyclopentanecarboxylic acid] | 2000 | > 40000 | > 40000 |
| O=C(O)[C@@H]1[C@@H](Cn2nnc3ccc(C(F)(F)F)cc3c2=O)CC[C@H]1C(=O)c1ccc(OCc2cccc(N3CCOC3=O)c2)cc1 (single isomer, unassigned) [Example 35, (+)-(1RS,2RS,5SR)-2-(4-{[3-(2-Oxo-1,3-oxazolidin-3-yl)benzyl]oxy}benzoyl)-5-{[4-oxo-6-(trifluoromethyl)-1,2,3-benzotriazin-3(4H)-yl]methyl}cyclopentanecarboxylic acid] | 400 | 300 | 2100 |

Compounds with a lower IC50 [1], results first:

| IC50 [1] [nM] | IC50 [2] [nM] | IC50 [3] [nM] | Compound |
| --- | --- | --- | --- |
| 220 | 520 | 8300 | Cc1cccc(COc2ccc(C(=O)[C@H]3CC[C@@H](Cn4nnc5ccc(C(F)(F)F)cc5c4=O)[C@@H]3C(=O)O)cc2)c1 (racemic) [Example 15, (+/−)-(1RS,2RS,5SR)-2-{4-[(3-Methylbenzyl)oxy]benzoyl}-5-{[4-oxo-6-(trifluoromethyl)-1,2,3-benzotriazin-3(4H)-yl]methyl}cyclopentanecarboxylic acid] |
| 140 | 100 | 3600 | O=C(O)[C@@H]1[C@@H](Cn2nnc3ccc(C(F)(F)F)cc3c2=O)CC[C@H]1C(=O)c1ccc(OCC2CCCC2)cc1 (single isomer, unassigned) [Example 44, (+)-(1RS,2RS,5SR)-2-[4-(Cyclopentylmethoxy)benzoyl]-5-{[4-oxo-6-(trifluoromethyl)-1,2,3-benzotriazin-3(4H)-yl]methyl}cyclopentanecarboxylic acid] |
| 110 | 260 | 4400 | Cc1ccc2nnn(C[C@H]3CC[C@@H](C(=O)c4ccc(OCC5CCCCC5)cc4)[C@@H]3C(=O)O)c(=O)c2c1 (single isomer, unassigned) [Example 117, (+)-(1RS,2RS,5SR)-2-[4-(Cyclohexylmethoxy)benzoyl]-5-[(6-methyl-4-oxo-1,2,3-benzotriazin-3(4H)-yl)methyl]cyclopentanecarboxylic acid] |
| 62 | 170 | 3300 | O=C(O)[C@@H]1[C@@H](Cn2nnc3ccc(C(F)(F)F)cc3c2=O)CC[C@H]1C(=O)c1ccc(OCc2ccc(F)cc2)cc1 (single isomer, unassigned) [Example 13, (+)-(1RS,2RS,5SR)-2-{4-[(4-Fluorobenzyl)oxy]benzoyl}-5-{[4-oxo-6-(trifluoromethyl)-1,2,3-benzotriazin-3(4H)-yl]methyl}cyclopentanecarboxylic acid] |
| 41 | 270 | 3100 | O=C(O)[C@@H]1[C@@H](Cn2nnc3ccc(C(F)(F)F)cc3c2=O)CC[C@H]1C(=O)c1ccc(OCC2CCCCC2)cc1 (single isomer, unassigned) [Example 41, (+)-(1RS,2RS,5SR)-2-[4-(Cyclohexylmethoxy)benzoyl]-5-{[4-oxo-6-(trifluoromethyl)-1,2,3-benzotriazin-3(4H)-yl]methyl}cyclopentanecarboxylic acid] |
